Experimental data reported in the supplement of paper PMC12463676, “Small-molecule dissolution of stress granules by redox modulation benefits ALS models” (Nature Chemical Biology, 2025).

Tests used:
lipoamide = compound: NC(=O)CCCCC1CCSS1 [lipoamide]; assay: thermal stability z-score vs DMSO; higher = more thermally stabilized by treatment; conditions: HeLa, lipoamide concentration 100 µM
Experimental: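 Cellular thermal proteome profiling in HeLa cells. Cells were treated with 100 µM lipoamide for 1 h, with or without 1 mM arsenate for a further 1 h, then heated to ten temperatures (37-66.3 °C), and soluble protein was quantified by TMT mass spectrometry relative to 0.1% DMSO controls. The thermal stability score (sum of log2 fold changes minus the abundance score) was transformed to a z-score; mean of n = 3 experiments.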

potassium arsenate = compound: O=[As]([O-])(O)O.[K+] [potassium arsenate]; assay: as above; conditions: HeLa; arsenate concentration 1 mM
Experimental: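 Cellular thermal proteome profiling in HeLa cells treated with 1 mM arsenate for 1 h (DMSO pretreatment), heated to ten temperatures (37-66.3 °C). Soluble protein was quantified by TMT mass spectrometry relative to DMSO controls; the thermal stability score was transformed to a z-score; mean of n = 3 experiments.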

[1] = arsenate co-treatment: 1 mM arsenate 1 h
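Note: each temperature applied for 3 min, abundance score taken as mean log2 fold change at the two lowest temperatures, z-score obtained by mean subtraction and division by SD.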

Chain of UniProt P30566 (P30566 whole entry): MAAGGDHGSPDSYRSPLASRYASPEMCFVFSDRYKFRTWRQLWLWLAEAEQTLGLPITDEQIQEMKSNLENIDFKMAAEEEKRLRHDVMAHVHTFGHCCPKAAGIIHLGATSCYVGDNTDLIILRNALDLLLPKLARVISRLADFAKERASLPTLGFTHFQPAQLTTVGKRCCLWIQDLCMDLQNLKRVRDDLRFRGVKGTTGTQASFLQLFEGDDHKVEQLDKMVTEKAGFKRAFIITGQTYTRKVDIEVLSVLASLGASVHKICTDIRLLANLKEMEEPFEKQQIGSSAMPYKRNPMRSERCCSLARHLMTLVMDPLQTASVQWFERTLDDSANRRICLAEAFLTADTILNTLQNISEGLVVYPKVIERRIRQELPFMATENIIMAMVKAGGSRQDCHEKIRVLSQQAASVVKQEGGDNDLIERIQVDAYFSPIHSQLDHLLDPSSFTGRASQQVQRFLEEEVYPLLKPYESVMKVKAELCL
Chain of UniProt P12814 (P12814 whole entry): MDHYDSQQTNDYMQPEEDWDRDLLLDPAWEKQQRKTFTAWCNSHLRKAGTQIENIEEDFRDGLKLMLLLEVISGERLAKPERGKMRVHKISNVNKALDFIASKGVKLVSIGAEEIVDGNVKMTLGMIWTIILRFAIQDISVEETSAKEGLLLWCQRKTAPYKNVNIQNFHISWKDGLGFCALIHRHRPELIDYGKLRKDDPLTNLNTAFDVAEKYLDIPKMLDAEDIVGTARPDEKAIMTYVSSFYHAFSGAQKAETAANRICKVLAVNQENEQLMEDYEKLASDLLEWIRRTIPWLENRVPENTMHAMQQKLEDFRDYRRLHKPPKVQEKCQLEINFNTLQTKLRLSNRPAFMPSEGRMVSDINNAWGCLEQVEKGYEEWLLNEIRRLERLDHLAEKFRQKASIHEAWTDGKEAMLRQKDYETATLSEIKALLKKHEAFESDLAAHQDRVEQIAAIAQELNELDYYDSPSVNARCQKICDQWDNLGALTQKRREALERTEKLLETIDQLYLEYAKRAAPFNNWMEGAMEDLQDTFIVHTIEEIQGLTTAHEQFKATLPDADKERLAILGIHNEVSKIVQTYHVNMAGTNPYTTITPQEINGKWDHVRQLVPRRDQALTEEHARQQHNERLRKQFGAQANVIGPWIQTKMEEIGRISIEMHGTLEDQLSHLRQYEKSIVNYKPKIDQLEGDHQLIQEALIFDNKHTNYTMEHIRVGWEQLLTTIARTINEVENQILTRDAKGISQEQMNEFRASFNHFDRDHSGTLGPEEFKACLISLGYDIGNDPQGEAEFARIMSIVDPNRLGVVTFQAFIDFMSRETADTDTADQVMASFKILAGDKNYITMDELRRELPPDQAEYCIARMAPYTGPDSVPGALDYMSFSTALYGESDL
Chain of UniProt O60488 (O60488 whole entry): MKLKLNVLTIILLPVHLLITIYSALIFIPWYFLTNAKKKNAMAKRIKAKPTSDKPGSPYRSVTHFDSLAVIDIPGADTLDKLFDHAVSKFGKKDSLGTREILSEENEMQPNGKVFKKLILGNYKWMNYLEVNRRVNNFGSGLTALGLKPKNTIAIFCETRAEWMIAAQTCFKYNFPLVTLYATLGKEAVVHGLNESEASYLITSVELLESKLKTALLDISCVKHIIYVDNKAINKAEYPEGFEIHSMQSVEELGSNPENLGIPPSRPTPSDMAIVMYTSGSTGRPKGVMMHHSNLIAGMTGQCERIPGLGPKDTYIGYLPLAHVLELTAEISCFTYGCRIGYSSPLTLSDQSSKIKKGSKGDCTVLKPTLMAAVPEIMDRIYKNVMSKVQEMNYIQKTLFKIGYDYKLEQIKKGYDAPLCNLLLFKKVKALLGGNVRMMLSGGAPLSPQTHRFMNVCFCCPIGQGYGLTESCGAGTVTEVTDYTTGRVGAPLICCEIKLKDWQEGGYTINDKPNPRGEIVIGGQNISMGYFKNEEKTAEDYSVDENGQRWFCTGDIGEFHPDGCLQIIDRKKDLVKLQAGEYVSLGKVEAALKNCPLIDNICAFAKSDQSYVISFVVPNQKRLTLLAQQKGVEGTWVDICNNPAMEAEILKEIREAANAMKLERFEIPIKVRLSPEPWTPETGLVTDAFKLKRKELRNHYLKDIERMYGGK
Chain of UniProt Q08117 (Q08117 whole entry): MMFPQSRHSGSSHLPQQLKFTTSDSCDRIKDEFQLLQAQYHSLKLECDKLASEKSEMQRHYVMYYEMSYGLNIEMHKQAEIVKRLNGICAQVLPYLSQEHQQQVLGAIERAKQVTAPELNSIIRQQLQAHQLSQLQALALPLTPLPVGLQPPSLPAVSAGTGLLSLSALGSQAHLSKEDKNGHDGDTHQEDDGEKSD
Chain of UniProt Q9BRR6 (Q9BRR6 whole entry): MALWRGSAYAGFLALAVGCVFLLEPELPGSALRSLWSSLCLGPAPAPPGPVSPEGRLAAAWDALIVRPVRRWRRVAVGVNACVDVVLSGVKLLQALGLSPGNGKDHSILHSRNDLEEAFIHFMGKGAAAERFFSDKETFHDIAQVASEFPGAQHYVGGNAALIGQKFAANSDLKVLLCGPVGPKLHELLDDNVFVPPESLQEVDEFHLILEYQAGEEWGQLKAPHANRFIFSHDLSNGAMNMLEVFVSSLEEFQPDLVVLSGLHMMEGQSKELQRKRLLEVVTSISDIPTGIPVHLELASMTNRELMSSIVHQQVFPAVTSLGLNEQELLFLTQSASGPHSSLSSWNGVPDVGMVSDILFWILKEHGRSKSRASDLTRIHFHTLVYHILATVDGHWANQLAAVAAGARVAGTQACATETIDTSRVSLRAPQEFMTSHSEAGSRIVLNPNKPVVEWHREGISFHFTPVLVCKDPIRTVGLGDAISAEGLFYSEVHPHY
Chain of UniProt Q96SZ5 (Q96SZ5 whole entry): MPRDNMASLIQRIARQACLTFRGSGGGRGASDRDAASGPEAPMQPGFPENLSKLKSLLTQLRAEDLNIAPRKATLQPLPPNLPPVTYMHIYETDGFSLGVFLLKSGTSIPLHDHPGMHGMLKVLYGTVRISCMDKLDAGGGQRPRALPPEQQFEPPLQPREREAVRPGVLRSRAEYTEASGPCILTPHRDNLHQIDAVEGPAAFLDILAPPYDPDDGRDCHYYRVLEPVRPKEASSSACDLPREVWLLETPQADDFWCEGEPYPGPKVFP
Chain of UniProt Q8N556 (Q8N556 whole entry): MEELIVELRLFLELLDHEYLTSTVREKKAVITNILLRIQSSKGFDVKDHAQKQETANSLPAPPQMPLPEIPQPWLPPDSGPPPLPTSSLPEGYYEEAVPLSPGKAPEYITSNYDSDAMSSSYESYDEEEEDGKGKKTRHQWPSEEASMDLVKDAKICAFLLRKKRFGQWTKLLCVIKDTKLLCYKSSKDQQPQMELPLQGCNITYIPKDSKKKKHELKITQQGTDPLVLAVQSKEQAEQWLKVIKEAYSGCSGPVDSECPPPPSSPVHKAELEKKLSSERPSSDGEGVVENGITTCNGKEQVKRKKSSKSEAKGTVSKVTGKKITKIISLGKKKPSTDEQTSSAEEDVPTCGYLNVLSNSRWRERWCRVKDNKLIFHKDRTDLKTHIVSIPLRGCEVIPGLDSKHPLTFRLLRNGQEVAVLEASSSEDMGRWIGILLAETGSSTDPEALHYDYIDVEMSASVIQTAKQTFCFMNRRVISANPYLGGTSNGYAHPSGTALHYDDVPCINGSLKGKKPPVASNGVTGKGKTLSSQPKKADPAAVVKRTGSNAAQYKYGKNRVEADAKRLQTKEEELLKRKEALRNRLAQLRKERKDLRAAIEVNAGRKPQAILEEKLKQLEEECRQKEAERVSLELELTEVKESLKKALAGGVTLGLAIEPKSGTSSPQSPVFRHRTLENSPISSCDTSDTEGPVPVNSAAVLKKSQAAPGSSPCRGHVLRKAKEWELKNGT
Chain of UniProt Q9BV57 (Q9BV57 whole entry): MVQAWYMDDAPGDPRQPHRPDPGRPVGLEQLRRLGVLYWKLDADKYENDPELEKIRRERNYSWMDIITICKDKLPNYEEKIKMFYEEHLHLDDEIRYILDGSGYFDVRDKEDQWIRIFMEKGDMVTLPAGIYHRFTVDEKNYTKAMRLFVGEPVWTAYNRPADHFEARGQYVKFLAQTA
Chain of UniProt Q4G176 (Q4G176 whole entry): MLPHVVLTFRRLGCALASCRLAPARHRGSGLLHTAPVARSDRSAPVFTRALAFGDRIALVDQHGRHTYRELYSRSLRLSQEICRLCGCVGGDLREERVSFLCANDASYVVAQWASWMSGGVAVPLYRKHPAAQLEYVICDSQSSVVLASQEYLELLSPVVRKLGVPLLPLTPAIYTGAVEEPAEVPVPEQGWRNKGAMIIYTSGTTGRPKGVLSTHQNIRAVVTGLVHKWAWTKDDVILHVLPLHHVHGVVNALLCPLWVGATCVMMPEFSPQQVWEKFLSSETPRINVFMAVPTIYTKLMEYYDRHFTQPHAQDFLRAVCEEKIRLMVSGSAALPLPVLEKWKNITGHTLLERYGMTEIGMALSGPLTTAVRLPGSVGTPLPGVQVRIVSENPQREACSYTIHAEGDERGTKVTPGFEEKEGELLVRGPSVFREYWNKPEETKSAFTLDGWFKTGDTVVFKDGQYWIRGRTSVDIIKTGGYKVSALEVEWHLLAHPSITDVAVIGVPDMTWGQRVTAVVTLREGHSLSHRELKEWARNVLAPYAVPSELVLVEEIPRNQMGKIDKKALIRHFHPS
Chain of UniProt Q9NX46 (Q9NX46 whole entry): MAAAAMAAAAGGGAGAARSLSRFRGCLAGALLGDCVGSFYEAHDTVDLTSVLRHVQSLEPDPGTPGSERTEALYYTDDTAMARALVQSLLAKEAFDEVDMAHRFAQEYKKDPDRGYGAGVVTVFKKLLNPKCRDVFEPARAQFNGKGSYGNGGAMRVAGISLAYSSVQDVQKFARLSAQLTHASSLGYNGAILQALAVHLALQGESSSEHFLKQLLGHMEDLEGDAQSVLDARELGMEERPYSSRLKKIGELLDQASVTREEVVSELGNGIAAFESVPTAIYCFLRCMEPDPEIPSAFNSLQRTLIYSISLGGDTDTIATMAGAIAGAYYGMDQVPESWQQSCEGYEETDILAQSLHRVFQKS

Row | Target | thermal stability z-score (lipoamide; [1]) | thermal stability z-score (lipoamide; arsenate co-treatment: none) | thermal stability z-score (potassium arsenate)
1 | ACP2 (UniProt P11117) | -0.226 | -0.57 | 0.375
2 | ACSF2 (UniProt Q96CM8) | -0.634 | -0.524 | -0.301
3 | ACSF3 (UniProt Q4G176) | -0.68 | 0.39 | 0.298
4 | ACSL1 (UniProt P33121) | 0.922 | 0.82 | 0.682
5 | ACSL3 (UniProt O95573) | -0.87 | -0.498 | -0.39
6 | ACSL4 (UniProt O60488) | 0.208 | 0.296 | -1.66
7 | ACSS2 (UniProt Q9NR19) | 0.198 | 0.512 | -0.517
8 | ACTG1 (UniProt P63261) | -0.494 | -0.484 | -0.572
9 | ACTL6A (UniProt O96019) | 2.1 | 0.96 | -0.336
10 | ACTN1 (UniProt P12814) | 0.249 | 0.339 | 0.163
11 | ACTN4 (UniProt O43707) | 0.262 | 0.364 | 0.498
12 | ACTR1A (UniProt P61163) | 0.0148 | 0.0511 | -0.614
13 | ACTR1B (UniProt P42025) | 1.04 | 0.945 | 0.0363
14 | ACTR2 (UniProt P61160) | -0.116 | -0.175 | -0.487
15 | ACTR3 (UniProt P61158) | -0.149 | 0.128 | -0.483
16 | ACTR5 (UniProt Q9H9F9) | -0.0353 | -0.0633 | -0.0841
17 | ACTR6 (UniProt Q9GZN1) | 0.151 | -0.182 | -0.13
18 | ACTR8 (UniProt Q9H981) | -0.154 | -0.0898 | -0.347
19 | ACTR10 (UniProt Q9NZ32) | -0.106 | 0.0788 | -0.312
20 | ACY1 (UniProt Q03154) | 0.304 | 0.38 | 0.873
21 | ACYP1 (UniProt P07311) | -0.11 | -0.304 | -0.451
22 | ACYP2 (UniProt P14621) | 0.611 | 0.261 | -0.0225
23 | ADA (UniProt P00813) | 0.792 | 0.403 | -0.000857
24 | ADAM9 (UniProt Q13443) | -0.535 | -0.428 | 0.397
25 | ADAM10 (UniProt O14672) | -1.72 | -1.52 | -0.0434
26 | ADAM15 (UniProt Q13444) | -1.37 | -1.49 | -0.1
27 | ADAM17 (UniProt P78536) | -1.11 | -0.994 | -0.966
28 | ADAR (UniProt P55265) | 0.419 | 0.448 | -1.48

Row | Target | thermal stability z-score (lipoamide; [1]) | thermal stability z-score (lipoamide; arsenate co-treatment: none) | thermal stability z-score (potassium arsenate)
29 | ADAT2 (UniProt Q7Z6V5) | -0.663 | -0.376 | -0.708
30 | ADAT3 (UniProt Q96EY9) | -0.293 | 0.276 | -0.301
31 | ADCK1 (UniProt Q86TW2) | 0.36 | -0.122 | -0.00585
32 | ADCK3 (UniProt Q8NI60) | -0.0263 | 0.19 | 0.0575
33 | ADCK4 (UniProt Q96D53) | -2.27 | -0.801 | -0.165
34 | ADCY9 (UniProt O60503) | 0.368 | 0.853 | 0.26
35 | ADD1 (UniProt P35611) | -0.281 | -0.308 | -0.913
36 | ADD3 (UniProt Q9UEY8) | -0.112 | 0.162 | -0.362
37 | ADGRG2 (UniProt Q8IZP9) | -0.0216 | 0.386 | -0.592
38 | ADH5 (UniProt P11766) | 1.89 | 0.761 | -1.99
39 | ADI1 (UniProt Q9BV57) | 0.768 | 0.913 | -0.317
40 | ADK (UniProt P55263) | -0.131 | -0.279 | -1.35
41 | ADNP (UniProt Q9H2P0) | -0.0133 | -0.0224 | -0.271
42 | ADO (UniProt Q96SZ5) | 1.62 | 1.31 | -0.401
43 | ADPGK (UniProt Q9BRR6) | -1.02 | -0.44 | -0.315
44 | ADPRHL2 (UniProt Q9NX46) | 0.435 | -0.109 | -0.268
45 | ADRBK1 (UniProt P25098) | 0.556 | 0.421 | 0.052
46 | ADRM1 (UniProt Q16186) | 1.21 | 0.976 | 0.823
47 | ADSL (UniProt P30566) | -0.0252 | -0.429 | -1.53
48 | ADSS (UniProt P30520) | 0.449 | -0.203 | -1.32
49 | ADSSL1 (UniProt Q8N142) | 0.111 | 0.223 | 0.237
50 | AEBP2 (UniProt Q6ZN18) | -0.0576 | -0.195 | -0.00304
51 | AES (UniProt Q08117) | 0.656 | 0.111 | 0.378
52 | AFAP1 (UniProt Q8N556) | 0.411 | -0.0977 | -0.957
53 | AFG3L2 (UniProt Q9Y4W6) | -0.688 | -0.0469 | -0.123
54 | AFTPH (UniProt Q6ULP2) | -0.18 | 0.15 | 0.102
55 | AGAP1 (UniProt Q9UPQ3) | -1.59 | -2.08 | -1.91
